Experimental data as given in patent US20260007636A1, “TREATING VASCULAR STENOSIS” (Mayo Foundation for Medical Education and Research, priority 2022, published 2026).
“Also recorded” adds a separate entry of the source.

Experiments:
Mcp-1 = Mcp-1 gene expression in PMA treated THP-1 cells (qRT-PCR); assay type: cell-based, human
Description: (§1) THP-1 (human leukemia monocyte cell line) cells were obtained from American Type Culture Collection (ATCC, Manassas, VA). THP-1 cells (200,000/well) were placed in six-well plates. After overnight incubation in serum free RPMI medium, cells were treated with 200 ng/ml of phorbol 12-myristate 13-acetate (PMA, Sigma-Aldrich, St. Louis, MO) to induce monocyte differentiation into macrophages. […] Cells were collected and RNA was isolated using miRNeasy kit (Qiagen).
(§2) PCR primers were purchased from Integrated DNA technologies (ITD, San Diego, USA). The miRNeasy Kit was used to isolate RNA (Qiagen, Germantown, MD, USA) according to the manufacturer's instructions. The iscript c-DNA synthesis kit (Bio-Rad, Hercules, CA, USA) was used to synthesize cDNA, and real-time qRT-PCR was done with the iTaq universal SYBR green super mix (Bio-Rad) using a C1000 thermal cycler with CFX96 real-time system (Bio-Rad). TBP-1 was used as a reference gene, and gene expression data was normalized to the respective control veins. The 2^−ΔΔct method was used to measure the fold change in gene expression.

THP-1 cells = experiment: CCR2, FABP4, IL8 and PPARγ gene expression in PMA treated THP-1 cells (qRT-PCR); assay type: cell-based, human; conditions: 200 ng/ml PMA, 300 μM BN or BN NP, 24 hours
Description: as §1, §2

CCCCCCCCCCCCCC(=O)O[C@@H]1[C@@H](C)[C@@]2(O)[C@@H](C=C(CO)C[C@]3(O)C(=O)C(C)=C[C@@H]23)[C@@H]2C(C)(C)[C@]12OC(C)=O [PMA, phorbol 12-myristate 13-acetate]
average Mcp-1 gene expression (Mcp-1; 200 ng/ml PMA with or without 300 μM BN or BN NP, 24 hours, fold change): 9.77±1.58 | average increase of Mcp-1 gene expression (Mcp-1; PMA compared to NP C alone): 859.13% | CCR2 gene expression (THP-1 cells): significantly increased; also recorded: induced | FABP4 gene expression (THP-1 cells): significantly increased; also recorded: induced | IL8 gene expression (THP-1 cells): significantly increased; also recorded: induced | PPARγ gene expression (THP-1 cells): significantly increased; also recorded: induced
